Measured values as given in patent publication US8980866B2, “Complex obtained from hyaluronic acid or a salt thereof and chondroitin sulphate mixtures” (Quimera Ingenieria Biomedica, S.L., priority 2011, dated 2015).

Experiment: Apparent viscosity by rheometry (HAAKE RheoStress RS300, stress controlled mode, Cross model)
Type: physicochemical
Conditions: for Viscosity, γ = 1: shear rate 1 s^−1, 25° C.; for Viscosity, γ = 1 / Viscosity, γ = 10 / Viscosity, γ = 100 / Viscosity, γ = 200: Milli-Q water, concentration per Table 3; for Viscosity, γ = 10: shear rate 10 s^−1, 25° C.; for Viscosity, γ = 100: shear rate 100 s^−1, 25° C.; for Viscosity, γ = 200: shear rate 200 s^−1, 25° C.
Method: Aqueous solutions of HA:CS mixtures (control) and atomized complexes at different weight ratios of sodium hyaluronate and chondroitin sulphate were prepared for rheological characterization. Their rheological profile was determined using a HAAKE RheoStress RS300 rheometer in stress controlled mode. A 1° cone and 35 mm diameter plate was used.
Controls and 1:1 and 1:10 complexes were reconstituted in Milli-Q water.
Based on an applied shear stress, viscosity of the samples was measured at 25° C. All samples fitted in a Cross model, which allowed to compare the results obtained.

Viscosity, γ = 1 [mPa · s]	Viscosity loss, γ = 1 (shear rate 1 s^−1, difference in viscosity of a sample with respect its control) [%]	Viscosity, γ = 10 [mPa · s]	Viscosity loss, γ = 10 (shear rate 10 s^−1, difference in viscosity of a sample with respect its control) [%]	Viscosity, γ = 100 [mPa · s]	Viscosity loss, γ = 100 (shear rate 100 s^−1, difference in viscosity of a sample with respect its control) [%]	Viscosity, γ = 200 [mPa · s]	Viscosity loss, γ = 200 (shear rate 200 s^−1, difference in viscosity of a sample with respect its control) [%]	Substance
3378.5	30.8	1924.5	16.5	522.0	9.6	326.5	12.9	sodium hyaluronate [Sample 2]
4884.3		2307.0		578.0		375.0		sodium hyaluronate [Sample 1]
